In patent publication US20150283092A1, “DRUG DELIVERY COMPOSITION” (Alkermes Pharma Ireland Limited, priority 2009, published 2015):
Where two headings read alike, the source gives them in different places.

How the values were obtained:
[1] = cited from earlier work
[2] = Dissolution of tacrolimus compositions in 0.005% HPC, pH 4.5, USP <711> apparatus I, baskets at 100 rpm; type: physicochemical
Description: Compositions A, B, and C were placed in 0.005% HPC, pH 4.5 according to USP <711>, apparatus I (2009), Baskets at 100 rpm (the dissolution vehicle). As an example of the different release profiles for the three compositions, the amount of medicament released from composition A was 92.07% at 120 min. The amount of medicament released from composition B was less than 10% at 360 min (excluded from graph due to scale). The amount of medicament released from Composition C was 43.55% at 120 min.

| native solubility of tacrolimus in this dissolution vehicle [2] | SMILES | pka value ([1]; first of two printed pka values) | pka value ([1]; second of two printed pka values) |
| --- | --- | --- | --- |
|  | CN1CCN(C2=Nc3cc(Cl)ccc3Nc3ccccc32)CC1 [clozapine] | 3.98 | 7.62 |
| approximately 43 % dissolved | C=CC[C@@H]1/C=C(\C)C[C@H](C)C[C@H](OC)[C@H]2O[C@@](O)(C(=O)C(=O)N3CCCC[C@H]3C(=O)O[C@H](/C(C)=C/[C@@H]3CC[C@@H](O)[C@H](OC)C3)[C@H](C)[C@@H](O)CC1=O)[C@H](C)C[C@@H]2OC [tacrolimus] |  |  |
